Laboratory results: patent US20260250325A1, “Antiviral Polypeptide Membrane Fusion Inhibitor, and Preparation Method and Application Thereof” (priority 2025, published 2026)
Where a SMILES comes first, the peptide text is derived from it. The star is where a group is joined. Succinyl(4-O-cholesteryl) = CC(C)CCC[C@@H](C)[C@H]1CC[C@H]2[C@@H]3CC=C4C[C@@H](OC(=O)CCC(=O)*)CC[C@]4(C)[C@H]3CC[C@]12C; X1 = CC(C)CCCC(C)C1CCC2C3CC=C4CC(OC(=O)CCC(=O)*)CCC4(C)C3CCC12C

Assays:
[1] = molecular target: T1, hMPV-N46 (127-172) (Human metapneumovirus, UniProt Q6WB98); assay: SPR affinity to hMPV-N46 coupled on CM5 chip; assay type: binding
T1 construct: hMPV-N46 (127-172)
T1 sequence (Q6WB98 127-172): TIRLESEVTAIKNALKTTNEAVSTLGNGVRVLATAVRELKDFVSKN
Experimental: (§1) hMPV and hPIV were two viruses having a typical Class I fusion protein-F protein. An F protein precursor F0 was cracked into F1 and F2 subunits. […] When the compound flowed through a chip surface, changes in an SPR signal were monitored in real time, binding and dissociation processes were recorded, and a binding rate constant (ka) and a dissociation rate constant (kd) were further obtained through kinetic analysis, thereby calculating an equilibrium dissociation constant (KD=kd/ka).
(§2) A CM5 chip with a catalog number 29149603, an amino coupling reagent kit with a catalog number BR100050, HBS-EP+Buffer (10×), sodium acetate (pH 4.0), and a 10 mM glycine-HCl buffer (pH 2.0) were all purchased from GE Health.
(§3) CM5 chip coupling: Channels 2 and 4 of the CM5 chip were activated for 7 min by using a freshly-prepared mixture of 50 mM Hydroxy succinimide (NHS) and 200 mM 1-(3-Dimethylaminopropyl)-3-ethylcarbodiimide (EDC) according to 1:1; and then, hMPV-N46 or hPIV-N51 was diluted and dissolved with sodium acetate with 4.0 pH to a concentration of 30 μM, with a flow rate of 10 μl/min and time of 600 s. An experimental buffer was HBS-EP+buffer (1×). Finally, the chip was blocked with 1 M ethanolamine. The instrument was set to a temperature of 25° C.
(§4) Affinity detection: the buffer used in the experiment was HBS-EP+buffer (1×), and a multi-cycle dynamic mode was used. Channels 1 and 3 of the chip served as blank reference channels; polypeptides to be detected sequentially flowed through Channels 2 and 4 at concentrations of 0 μM, 0.04 µM, 0.12 µM, 0.37 μM, 1.11 µM, 3.33 µM, 10 µM, and 30 μM; the flow rate was 30 μl/min, binding was performed for 180 s, and dissociation was performed for 120 s. Finally, the chip was regenerated by injecting 10 mM glycine (pH 2.0). The instrument was set to a temperature of 25° C.

[2] = molecular target: T2, hPIV-N51 (139-189) (Human parainfluenza 3 virus, UniProt P06828); assay: SPR affinity to hPIV-N51 coupled on CM5 chip; assay type: binding
T2 construct: hPIV-N51 (139-189)
T2 sequence (P06828 139-189): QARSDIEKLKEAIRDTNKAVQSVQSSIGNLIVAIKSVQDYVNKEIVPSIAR
Experimental: as §1, §2, §3, §4

[3] = system: hMPV B1; assay type: cell-based; details: Vero cells, plaque reduction
Experimental: (§5) African green monkey kidney cells (Vero) were sourced from the ATCC, with catalog number CCL-81. The cells were cultured in a DMEM culture solution in which 10% fetal bovine serum, 1% non-essential amino acids, 1% sodium pyruvate, 1% L-glutamine, 100 U/ml penicillin, and 100 μg/ml streptomycin were added.
(§6) A hMPV plaque experiment culture medium consisted of an Opti-MEM culture solution added with 1% non-essential amino acids, 100 U/mL penicillin, and 100 μg/mL streptomycin.
(§7) hMPV virus strains A2 and B1 were constructed by WuXi App Tec.
(§8) This study used a plaque reduction experiment to detect the in-vitro activity of a test sample against the hMPV virus strains A2 and B1.
(§9) The test sample and an experimental system were tested at 8 concentrations in duplicated wells. The Vero cells were digested with trypsin and then diluted to a concentration of 400,000 cells per milliliter by using a cell culture solution containing 2% serum. The diluted cells were added to a 96-well cell test board, with 100 μL per well, corresponding to 40000 cells per well. The cells were cultured overnight in a 37° C. incubator with 5% CO2.
(§10) On the second day, the test sample was diluted in an experimental culture medium at a fold ratio. The sample diluted at a fold ratio and an equal volume of virus (approximately 200 PFU per well) were well mixed and incubated at 33° C. in 5% CO2 for 1 h. Then, the culture solution in the 96-well cell test board was discarded, the sample virus mixed solution (100 μL) was added to the 96-well cell culture plate, and incubated at 37° C. in 5% CO2 for 2 hours. After 2 h, the sample virus mixed solution was discarded, 200 μL of an experiment culture medium containing the test sample with a corresponding concentration was added, and the culture solution contained 0.8% CMC and 5 μg/ml trypsin. A final concentration of DMSO in the culture solution was 0.5%. A system control antibody was directly added to the experiment culture solution containing 0.8% CMC and 5 μg/ml trypsin. A cell control (cells, without compound treatment or viral infection) and a viral control (cell infection virus, without compound treatment) were set. The cells were cultured for 1 day in the 33° C. incubator with 5% CO2.
(§11) The cells were fixed with 4% paraformaldehyde, and then permeabilization was performed with 0.5% Triton X-100. After the plate was washed with DPBS, a hMPV specific antibody (1:2000 dilution) was added and incubated at 37° C. for 1.5 h. Then, a secondary antibody (1:1000 dilution) was added and incubated at 37° C. for 1 hour. The secondary antibody was discarded, a TrueBlue solution was added, dyeing was performed for approximately 10 minutes; and the plate was washed with running water and then air-dried, and the number of spots in each well was counted by using a microplate imaging counter.
(§12) Raw data was used for analyzing the antiviral activity of the test samples. A calculation formula was shown as follows.
(§13) % inhibition rate=100−(sample value-cell control average value)/(virus control average value-cell control average value)×100
(§14) Non-linear fitting analysis was performed on the inhibition rate of the sample by using GraphPad Prism (version 10), so as to calculate an EC50 value for the sample. A fitting formula was log (inhibitor) vs. response-Variable slope (four parameters).

[4] = system: hMPV A2; assay type: cell-based; details: Vero cells, plaque reduction
Experimental: as §5, §6, §7, §8, §9, §10, §11, §12, §13, §14

Compound	Kd [1]	Kd [2]	EC50 [3]	EC50 [4]
CC[C@H](C)[C@H](NC(=O)[C@H](CCCCN)NC(=O)[C@H](CCCCN)NC(=O)[C@H](CC(C)C)NC(=O)[C@H](CO)NC(=O)[C@H](CCC(N)=O)NC(=O)[C@H](CC(N)=O)NC(=O)[C@@H](NC(=O)[C@H](CCCCN)NC(=O)[C@H](CCCCN)NC(=O)[C@H](CC(=O)O)NC(=O)[C@H](Cc1ccccc1)NC(=O)[C@H](CCC(=O)O)NC(=O)[C@@H](NC(=O)[C@H](CCCCN)NC(=O)[C@H](CCCCN)NC(=O)[C@H](CC(N)=O)NC(=O)[C@@H](NC(=O)[C@H](CC(C)C)NC(=O)[C@H](CCC(=O)O)NC(=O)[C@H](CC(=O)O)NC(=O)[C@H](CO)NC(C)=O)C(C)C)[C@@H](C)CC)[C@@H](C)CC)C(=O)N[C@@H](CCC(=O)O)C(=O)N[C@@H](CCC(=O)O)C(=O)N[C@@H](CO)C(=O)N[C@@H](CC(=O)O)C(=O)N[C@@H](CCCCN)C(=O)N[C@@H](CCCCN)C(=O)N[C@@H](CCCCN)C(=O)N[C@@H](CC(C)C)C(=O)N[C@@H](CCC(=O)O)C(=O)N[C@@H](C)C(=O)N[C@@H](C)C(=O)N[C@@H](C)C(=O)N[C@@H](CCCCN)C(=O)N[C@@H](CCCCN)C(N)=O [Compound 51] (Ac-SDELVNKKIEFDKKINQSLKKIEESDKKKLEAAAKK-NH2)	14.4 nM	51.4 nM	3.82 nM	18.8 nM
CC[C@H](C)[C@H](NC(=O)[C@H](CO)NC(=O)[C@H](C)NC(=O)[C@H](CC(=O)O)NC(=O)[C@H](Cc1ccccc1)NC(=O)[C@H](CCC(=O)O)NC(=O)[C@H](CC(=O)O)NC(=O)[C@H](Cc1c[nH]c2ccccc12)NC(C)=O)C(=O)N[C@@H](CO)C(=O)N[C@@H](CCC(N)=O)C(=O)N[C@H](C(=O)N[C@@H](CC(N)=O)C(=O)N[C@@H](CCC(=O)O)C(=O)N[C@@H](CCCCN)C(=O)N[C@H](C(=O)N[C@@H](CC(N)=O)C(=O)N[C@@H](CCC(N)=O)C(=O)N[C@@H](CO)C(=O)N[C@@H](CC(C)C)C(=O)N[C@@H](CCC(=O)O)C(=O)N[C@@H](CCC(=O)O)C(=O)N[C@H](C(=O)N[C@@H](CCCNC(=N)N)C(=O)N[C@@H](CCCCN)C(=O)N[C@@H](CO)C(=O)N[C@@H](CC(=O)O)C(=O)N[C@@H](CCC(=O)O)C(=O)N[C@@H](CC(C)C)C(=O)N[C@@H](CC(C)C)C(=O)N[C@@H](Cc1c[nH]cn1)C(=O)N[C@@H](CC(N)=O)C(=O)N[C@@H](CCC(=O)O)C(=O)N[C@@H](C)C(=O)N[C@@H](C)C(=O)N[C@@H](C)C(=O)N[C@@H](CCCCN)C(=O)N[C@@H](CCCCNC(=O)CCC(=O)O[C@H]1CC[C@@]2(C)C(=CC[C@H]3[C@@H]4CC[C@H]([C@H](C)CCCC(C)C)[C@@]4(C)CC[C@@H]32)C1)C(N)=O)[C@@H](C)CC)[C@@H](C)CC)C(C)C [Compound 45] (Ac-WDEFDASISQVNEKINQSLEEIRKSDELLHNEAAAKK(Succinyl(4-O-cholesteryl))-NH2)	70600 nM	179000 nM	13.1 nM	200 nM
CC[C@H](C)[C@H](NC(=O)[C@H](CCCCN)NC(=O)[C@H](CCCCN)NC(=O)[C@H](CC(C)C)NC(=O)[C@H](CO)NC(=O)[C@H](CCC(=O)O)NC(=O)[C@H](CCC(=O)O)NC(=O)[C@@H](NC(=O)[C@H](CCCCN)NC(=O)[C@H](CCCCN)NC(=O)[C@H](CC(N)=O)NC(=O)[C@@H](NC(=O)[C@H](CCC(=O)O)NC(=O)[C@H](CCC(=O)O)NC(=O)[C@@H](NC(=O)[C@H](CCCCN)NC(=O)[C@H](CCCCN)NC(=O)[C@H](CC(=O)O)NC(=O)[C@H](Cc1ccccc1)NC(=O)[C@H](CCC(=O)O)NC(=O)[C@H](CC(=O)O)NC(=O)[C@H](CO)NC(C)=O)[C@@H](C)CC)C(C)C)[C@@H](C)CC)C(=O)N[C@@H](CCC(=O)O)C(=O)N[C@@H](CCC(=O)O)C(=O)N[C@@H](CO)C(=O)N[C@@H](CC(=O)O)C(=O)N[C@@H](CCCCN)C(=O)N[C@@H](CCCCN)C(=O)N[C@@H](CC(C)C)C(=O)N[C@@H](CCC(=O)O)C(=O)N[C@@H](C)C(=O)N[C@@H](C)C(=O)N[C@@H](C)C(=O)N[C@@H](CCCCN)C(=O)N[C@@H](CCCCNC(=O)CCC(=O)O[C@H]1CC[C@@]2(C)C(=CC[C@H]3[C@@H]4CC[C@H]([C@H](C)CCCC(C)C)[C@@]4(C)CC[C@@H]32)C1)C(N)=O [Compound 16] (Ac-SDEFDKKIEEVNKKIEESLKKIEESDKKLEAAAKK(Succinyl(4-O-cholesteryl))-NH2)	3060 nM	5400 nM	4.5 nM	7.35 nM
Ac-SLEQVNEKINQSLAFIRKSDEINQSDEEVNKSDELLEAAAKK-NH2 [Compound 50]			5.95 nM	13.3 nM
CC[C@H](C)[C@H](NC(=O)[C@H](CCCCN)NC(=O)[C@H](CCCCN)NC(=O)[C@H](CC(C)C)NC(=O)[C@H](CO)NC(=O)[C@H](CCC(=O)O)NC(=O)[C@H](CCC(=O)O)NC(=O)[C@@H](NC(=O)[C@H](CCCCN)NC(=O)[C@H](CCCCN)NC(=O)[C@H](CC(N)=O)NC(=O)[C@@H](NC(=O)[C@H](CCC(=O)O)NC(=O)[C@H](CCC(=O)O)NC(=O)[C@@H](NC(=O)[C@H](CCCCN)NC(=O)[C@H](CCCCN)NC(=O)[C@H](CC(=O)O)NC(=O)[C@H](Cc1ccccc1)NC(=O)[C@H](CCC(=O)O)NC(=O)[C@H](CC(=O)O)NC(C)=O)[C@@H](C)CC)C(C)C)[C@@H](C)CC)C(=O)N[C@@H](CCC(=O)O)C(=O)N[C@@H](CCC(=O)O)C(=O)N[C@@H](CO)C(=O)N[C@@H](CC(=O)O)C(=O)N[C@@H](CCCCN)C(=O)N[C@@H](CCCCN)C(=O)N[C@@H](CC(C)C)C(=O)N[C@@H](CCC(=O)O)C(=O)N[C@@H](CCC(=O)O)C(=O)N[C@H](C(=O)N[C@@H](CCC(=O)O)C(=O)N[C@@H](C)C(=O)N[C@@H](C)C(=O)N[C@@H](C)C(=O)N[C@@H](CCCCN)C(=O)N[C@@H](CCCCNC(=O)CCC(=O)OC1CCC2(C)C(=CCC3C2CCC2(C)C(C(C)CCCC(C)C)CCC32)C1)C(N)=O)C(C)C (stereo partly shown) [Compound 21] (Ac-DEFDKKIEEVNKKIEESLKKIEESDKKLEEVEAAAKK(X1)-NH2)			4.92 nM	11.2 nM
